Reference: patent US11072637B2, “Walnut oligopeptide powder, preparation method and application thereof” (Sinphar Tian-Li (Hangzhou) Pharmacy Company Limited, priority 2016, dated 2021)
“And” between values parts separate entries of the source, which are not always exact repeats. Equal values may be shown once. Non-standard residues stand in square brackets, D forms with d. Residues, ends and D or L forms follow the SMILES beside them. pGlu = O=C1CC[C@@H](C(=O)O)N1; Thz = O=C(O)[C@@H]1CSCN1

Legend:
zebra fish macrophages [1] = experiment: Improvement of zebra fish macrophage inhibition (vinorelbine model); format: in vivo; details: for number of macrophages of the zebra fish head, Mean ± SD(count): 1.9 μg/mL in fish water, model control 15, normal control 27, n = 10
Procedure: Improvement Effect of Walnut Oligopeptide Powder on Inhibition of Zebra Fish Macrophages […] Meanwhile, model control group and normal control group were set (no treatment was carried out), in which 30 tail zebra fishes were in each experimental group, and each group was placed in a 28 L incubator to be cultured. When processing to 3 dpf, the zebra fishes in each experiment group were subjected to neutral red staining. After dyeing for 4 hours, 10-tail zebra fishes from each experimental group were selected to be observed under microscope randomly, and photos were taken and stored. Image analysis for the number of the zebra fish macrophages was carried out by image processing software. The improvement effect of the walnut oligopeptide powder on inhibition of the zebra fish macrophage was quantitatively evaluated.

[2] = test system: central nervous system of zebra fishes; experiment: Protection of zebra fish central nervous system (mycophenolate-induced injury); format: in vivo; details: 154 μg/mL
Procedure: Protection Effect of the Walnut Oligopeptide Powder on the Central Nervous Centrum of Zebra Fishes 180 wild type AB strain zebra fishes after fertilization in […] (1 dpf) were selected randomly and were arranged in six-well plate, and 30 tail zebra fishes were treated in each hole (the experiment group), and central injury of the zebra fishes was induced by the mycophenolate mophol ester. […] After the oligopeptide was subjected to co-treatment for 24 hours with the mycophenolate, the acridine orange was used for dyeing, after dyeing, 10 tail zebra fishes from each experimental group were selected randomly to photograph under fluorescence microscope and collect data, analyzing and counting the fluorescent intensity of the apoptotic cells of central nervous system (brain and spinal cord) of the zebra fishes; the protective effect of the walnut oligopeptide powder on the central nervous system of zebra fishes was evaluated according to the fluorescence intensity.

[3] = test system: Sodium Nitrite-Induced Memory Consolidation Disorder of Mice; experiment: Sodium nitrite-induced memory consolidation disorder of mice (jumping table); format: in vivo, ICR mouse; details: sodium nitrite model, 30 mg/kg
Procedure: (§1) The test animal was a cleaning-grade ICR mouse with 18-22 g in weight, the three batches of 300 were provided by Nantong University. Laboratory animal production license is SCXK (Su) 2014-0001, fed by conventional mouse feedstuff, and free drinking water. Before the experiment they were fed in a quiet environment for 1 week, freely-feeding and drinking water, and keeping the room temperature (22±1° C.) and natural day and night rhythm illumination. The mouse was randomly grouped and low, medium and high dosage groups (30, 100 and 300 mg/kg) of walnut oligopeptide (preparation example 1) was provided, the blank group and the model group were given equal-volume distilled water respectively, and 30 mg/kg of nimodipine was administrated in positive control group, respectively filling the stomach for one time every day in each group, and continuously feeding the medicines for 7 days. Jump-table training. […] During testing, the mouse were placed on the jumping table, and time was counted at the same time. The first jumping time of the mouse was recorded, and it was an electric shock incubation period (namely, an error incubation period) and recording the times of jumping within 5 minutes (i.e., the times of errors), was recorded as observation index. […]

[4] = test system: 40% Ethanol-Induced Memory Reproduction Disorder of Mice; experiment: 40% ethanol-induced memory reproduction disorder of mice (jumping table); format: in vivo, ICR mouse; details: 40% ethanol model, 30 mg/kg
Procedure: as §1

[5] = test system: Scopolamine-Induced Memory Acquisition Impairment of the Mice; experiment: Scopolamine-induced memory acquisition impairment of mice (jumping table); format: in vivo, ICR mouse; details: scopolamine model, 30 mg/kg
Procedure: 1. Test Animal The test animal was a cleaning-grade ICR mouse with 18-22 g in weight, the three batches of 300 were provided by Nantong University. Laboratory animal production license is SCXK (Su) 2014-0001, fed by conventional mouse feedstuff, and free drinking water. Before the experiment they were fed in a quiet environment for 1 week, freely-feeding and drinking water, and keeping the room temperature (22±1° C.) and natural day and night rhythm illumination. 2.1 Influence on Scopolamine-Induced Memory Acquisition Impairment of Mouse The mouse was randomly grouped and low, medium and high dosage groups (30, 100 and 300 mg/kg) of walnut oligopeptide (preparation example 1) was provided, the blank group and the model group were given equal-volume distilled water respectively, and 30 mg/kg of nimodipine was administrated in positive control group, respectively filling the stomach for one time every day in each group, and continuously feeding the medicines for 7 days. Jump-table training. […] During testing, the mouse were placed on the jumping table, and time was counted at the same time. The first jumping time of the mouse was recorded, and it was an electric shock incubation period (namely, an error incubation period) and recording the times of jumping within 5 minutes (i.e., the times of errors), was recorded as observation index.

H2O2 induced PC12 cell = experiment: Protection of PC12 cells against hydrogen peroxide damage (MTT); format: cell-based; details: 80 μg/ml, 6 hours pre-culture, then 100 μM H2O2 12 hours; model group 57.2
Procedure: PC12 nerve cell protection model: This is a good model for studying nerve cell physiology, pathology and pharmacology, and also a most common in-vitro drug screening model for studying Parkinson's disease and neuro-fatigue.
PC12 cells were cultured by using a high-sugar DMEM culture medium containing 10% fetal calf serum, and digesting for about 50 seconds by using 0.25% of pancreatin during cell passage, stopping digestion by using a DMEM culture medium containing 10% serum, and adding fresh culture medium to blow the cells uniformly. Cell density passage of 10^5/ml was carried out. 4 ml of culture solution containing cells was added to each bottle of cells, culturing under the conditions of 37° C. and 5% CO2. […]
The 96-well plate was respectively given to 100 μL of the walnut oligopeptide by a certain concentration gradient in each hole, after culturing for 24 hours, the cell vitality was detected by MTT method. […] The cell activity of the model group and the drug delivery group was calculated by taking the average value of the OD value of the control group as 100% of the cell activity. […]
The above groups were cultured under the same conditions, and then subsequent experiments were carried out. The cell activity was detected by MTT method in 96-well plates.

zebra fish macrophages [6] = experiment: Promotion of phagocytosis function of zebra fish macrophages (ink model); format: in vivo; details: 200 μg/mL
Procedure: 2. Promotion Effect of Walnut Oligopeptide Powder on Phagocytosis Function of Zebra Fish Macrophages
Zebra fish macrophage promoting model inhibition model was built by intravenous injection of ink in 2 days (2 dpf) zebra fishes after fertilization. respectively dissolved in fish water to give the walnut oligopeptide and the positive drug pidotimod, […], and the concentration of the pidotimod is 200 […]. Meanwhile, model control group and normal control group were set, in which 30 tail zebra fishes are in each experimental group, and each group was placed in a 28 L incubator to be cultured. When processing to 3 dpf, the zebra fishes in each experiment group were subjected to neutral red staining, after dyeing for 4 hours, 10-tail zebra fishes from each experimental group were selected to be observed under microscope randomly, and photos were taken and stored; image analysis for the ink signal of the zebra fish macrophages was carried out by image processing software. The improvement effect of four test samples on phagocytosis function of the zebra fish macrophages was quantitatively evaluated.

COc1ccc2cc3[n+](cc2c1OC)CCc1cc2c(cc1-3)OCO2 [Berberine, berberine]
number of macrophages of the zebra fish head, Mean ± SD(count) (zebra fish macrophages [1]): 20 ± 4 count | number of macrophages of the zebra fish head, Mean ± SD(count) (zebra fish macrophages [1]; listed as berberine): 20 count | Improvement Effect (%) (zebra fish macrophages [1]; 1.9 μg/mL, compared with model control group): 41.67%

N[C@@H](CCC(=O)N[C@@H](CS)C(=O)NCC(=O)O)C(=O)O [GSH, glutathione]
Protection Effect on Central Nervous System (%) [2]: 92% | fluorescence intensity of central apoptosis cell (pixel)(mean ± SE) ([2]; 24 hours co-treatment with mycophenolate, model 565783, normal 161976): 190000 pixel and 193900 ± 8302 pixel

COCCOC(=O)C1=C(C)NC(C)=C(C(=O)OC(C)C)C1c1cccc([N+](=O)[O-])c1 (centres unmarked) [Nimodipine, nimodipine]
Incubation Period ([3]; gavage once daily 7 days, n = 10, model 94.7): 237.7 ± 79.7 s | Times of Error (n) ([3]; within 5 minutes, model 3.6): 1.0 ± 1.2 n | Incubation Period ([4]; gavage once daily 7 days, n = 8, model 46.3): 99.6 ± 98.7 s | Times of Error (n) ([4]; within 5 minutes, model 5.7): 2.5 ± 1.4 n | Incubation Period ([5]; gavage once daily 7 days, n = 10, model 14.6): 35.9 ± 30.3 s | Times of Error (n) ([5]; within 5 minutes, model 3.5): 2.0 ± 1.4 n

CC(=O)N[C@@H](CS)C(=O)O [Positive group, NAC]
Cell activity(%) (H2O2 induced PC12 cell): 88.0%

O=C1CC[C@@H](C(=O)N2CSC[C@H]2C(=O)O)N1 [pidotimod] ([pGlu]-[Thz]-OH)
Promotion Effect (time) (zebra fish macrophages [6]; compared with model control group): 2.3 time | number of macrophages of the phagocytosis ink, Mean ± SD(count) (zebra fish macrophages [6]; model control 1.5, n = 10): 3.5 count and 3.5 ± 1.8 count
